The source of these data is ChEMBL document CHEMBL1201862, “PubChem BioAssay data set” (2004).

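Interpolation was linear, between the two tested concentrations surrounding the appropriate level; five concentrations were tested over 48 hours in 96-well plates. At the GI50, growth is halved.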 The source made the active and inactive calls. No stated cut-off is given here; in the data, active = GI50 up to about 1.1 µM and inactive = higher.

Among the test systems are TK-10; EKVX; SNB-75; NCI-H460; CCRF-CEM; HL-60; 786-0; SN12C; SK-MEL-2; SK-OV-3; BT-549; HCC 2998; U-251; MDA-N; OVCAR-3; HCT-15; M14; PC-3; NCI/ADR-RES.
Common to all, as to test: NCI tumour cell line growth inhibition, 48 h

Consider `Clc1ccc2oc(CCC3CCCCC3)nc2c1`, for which the GI50 in the assay on TK-10 was 26.4 µM (inactive); in the assay with EKVX, 26.7 µM (inactive); in the assay with SNB-75 it was 23 µM (inactive); in the assay with NCI-H460 it was 24.9 µM (inactive); with CCRF-CEM it was 18.5 µM (inactive); in the assay with HL-60 it was 16.3 µM (inactive). Besides, the GI50 in the assay with 786-0 is 28.2 µM (inactive); in the assay on SN12C, 21.9 µM (inactive); in the assay on SK-MEL-2, 19.1 µM (inactive); in the assay on SK-OV-3, 26.1 µM (inactive); with BT-549, 26.8 µM (inactive); in the assay with HCC 2998, 22.9 µM (inactive). Also, the GI50 with U-251 was 19.3 µM (inactive); in the assay on MDA-N, 33.3 µM (inactive); with OVCAR-3, 15.6 µM (inactive); with HCT-15 it was 24.7 µM; in the assay on M14, 32 µM (inactive); with PC-3, 33 µM (inactive). Also, in the assay on NCI/ADR-RES, the GI50 was 30.3 µM (inactive).
In the case of `Cn1c2c(c3ccccc31)CCN=C2C1CCCOC1=O` (centres undefined), the GI50 in the assay on TK-10 is > 100 µM (inactive); with EKVX it was 88.3 µM (inactive); with SNB-75 it was 85.9 µM (inactive); in the assay on NCI-H460, > 100 µM (inactive); in the assay on HL-60, > 100 µM (inactive); with 786-0 it was > 100 µM (inactive). For the same compound, the GI50 is > 100 µM (inactive) with SN12C; > 100 µM (inactive) in the assay on SK-MEL-2; 47 µM (inactive) in the assay with BT-549; > 100 µM (inactive) in the assay with HCC 2998; > 100 µM (inactive) in the assay on U-251; > 100 µM (inactive) in the assay with MDA-N. For the same compound, the GI50 in the assay on OVCAR-3 was > 100 µM (inactive); in the assay with HCT-15 it was over 100 µM; with M14 it was > 100 µM (inactive); in the assay on PC-3, > 100 µM (inactive); in the assay with NCI/ADR-RES, > 100 µM (inactive).
Regarding `Cc1n[nH]c(=O)n1-c1cccnc1`, the GI50 with TK-10, in the assay on EKVX, in the assay on SNB-75, in the assay with NCI-H460, in the assay with CCRF-CEM and in the assay with HL-60 was > 100 µM (inactive) throughout. The GI50 in the assay on 786-0, in the assay on SN12C, in the assay on BT-549, with HCC 2998, with U-251 and in the assay with MDA-N was > 100 µM (inactive) each time. In addition, the GI50 with OVCAR-3 was > 100 µM (inactive); in the assay on HCT-15, over 100 µM; in the assay on M14, > 100 µM (inactive); with PC-3, > 100 µM (inactive); with NCI/ADR-RES, > 100 µM (inactive).
For the compound `CC(=O)O[C@H]1CC[C@@]2(C)C(=CC[C@@H]3[C@@H]2CC[C@]2(C)Nc4c(cnn4S(C)(=O)=O)C[C@@H]32)C1`, the GI50 in the assay with SNB-75 was 69.3 µM (inactive); with NCI-H460 it was 44.4 µM (inactive); in the assay on CCRF-CEM, 37.2 µM (inactive); in the assay with HL-60, 23.4 µM (inactive); in the assay with SN12C it was > 100 µM (inactive); in the assay on SK-MEL-2 it was > 100 µM (inactive). The GI50 with SK-OV-3 is > 100 µM (inactive); in the assay on BT-549, 23.3 µM (inactive); with HCC 2998, > 100 µM (inactive); with U-251, 76.7 µM (inactive); with MDA-N, 60.1 µM (inactive); in the assay with OVCAR-3, 48 µM (inactive). Moreover, the GI50 was 43.6 µM in the assay with HCT-15, 27.8 µM (inactive) with M14, 39.1 µM (inactive) in the assay on PC-3 and > 100 µM (inactive) in the assay on NCI/ADR-RES.
For `C[C@@H]1Nc2cc(NC(=O)OCCF)nc(N)c2N=C1c1ccccc1`, the GI50 in the assay with EKVX was < 0.0001 µM (active); with SNB-75 it was 32.7 µM (inactive); with NCI-H460, < 0.0001 µM (active); with CCRF-CEM it was < 0.0001 µM (active); in the assay with HL-60 it was < 0.0001 µM (active); in the assay on 786-0, < 0.0001 µM (active). In addition, the GI50 in the assay on SN12C is < 0.0001 µM (active); in the assay with SK-MEL-2, < 0.01 µM (active); with BT-549, 84.1 µM (inactive); in the assay with HCC 2998, < 0.01 µM (active); in the assay on U-251, < 0.0001 µM (active); with MDA-N it was < 0.0001 µM (active). Further, the GI50 in the assay with OVCAR-3 is < 0.0001 µM (active); in the assay on HCT-15 it was under 0.0001 µM; in the assay with M14, < 0.0001 µM (active); in the assay with PC-3, < 0.0001 µM (active); in the assay on NCI/ADR-RES, < 0.0001 µM (active).
As to `COc1cc(/N=C(\N)N=C(N)N)c2ncccc2c1`, the GI50 was > 100 µM (inactive) in the assay with TK-10; > 100 µM (inactive) in the assay with EKVX; 60.4 µM (inactive) in the assay with SNB-75; > 100 µM (inactive) in the assay on NCI-H460; 64.6 µM (inactive) with 786-0; 62.1 µM (inactive) in the assay with SN12C. Moreover, the GI50 in the assay with SK-MEL-2 is > 100 µM (inactive); in the assay on SK-OV-3 it was > 100 µM (inactive); with BT-549, 78.5 µM (inactive); in the assay on HCC 2998, > 100 µM (inactive); in the assay with U-251, 38 µM (inactive); in the assay with MDA-N it was > 100 µM (inactive). Also, the GI50 in the assay with OVCAR-3 is > 100 µM (inactive); in the assay with HCT-15, over 100 µM; with M14, > 100 µM (inactive); in the assay with PC-3, > 100 µM (inactive); with NCI/ADR-RES, > 100 µM (inactive).
With `CCOC(=O)CC1c2ccc(O)cc2OC(=O)C1c1ccc(N)cc1` (centres undefined), the GI50 with TK-10 was > 100 µM (inactive); in the assay with EKVX it was > 100 µM (inactive); in the assay with SNB-75, 84.9 µM (inactive); in the assay on NCI-H460 it was > 100 µM (inactive); in the assay with CCRF-CEM, > 100 µM (inactive); in the assay on 786-0 it was > 100 µM (inactive). The GI50 in the assay with SN12C, in the assay with SK-MEL-2, with SK-OV-3, in the assay with BT-549, in the assay with HCC 2998 and in the assay on U-251 was > 100 µM (inactive) in each case. Also, the GI50 in the assay on MDA-N was > 100 µM (inactive); in the assay with OVCAR-3, > 100 µM (inactive); in the assay on HCT-15, over 100 µM; with M14, > 100 µM (inactive); in the assay with PC-3, > 100 µM (inactive); in the assay with NCI/ADR-RES, > 100 µM (inactive).
With `O=c1cnn(C/C=C/CO)c(=O)[nH]1`, the GI50 in the assay on TK-10, with EKVX, in the assay on SNB-75, in the assay with NCI-H460, in the assay on CCRF-CEM and in the assay with HL-60 was > 100 µM (inactive) each time. The GI50 in the assay on SN12C, in the assay with SK-MEL-2, in the assay on BT-549, with HCC 2998, with U-251 and in the assay with MDA-N was > 100 µM (inactive) in each case. The GI50 with OVCAR-3 was > 100 µM (inactive); in the assay with HCT-15, over 100 µM; in the assay with M14 it was > 100 µM (inactive); in the assay on PC-3, > 100 µM (inactive); in the assay with NCI/ADR-RES, > 100 µM (inactive).
As for `CC1=[N+]([O-])C(C)(C)N(N=O)C1(C)C`, the GI50 with TK-10, with EKVX, with NCI-H460, in the assay with CCRF-CEM, in the assay with HL-60 and in the assay with 786-0 was > 10 µM (inactive) each time. In addition, the GI50 with SN12C, in the assay on SK-MEL-2, in the assay on BT-549, in the assay with HCC 2998, with U-251 and in the assay on MDA-N was > 10 µM (inactive) in each case. The GI50 in the assay on OVCAR-3 was > 10 µM (inactive); in the assay with HCT-15, over 10 µM; in the assay with M14 it was > 10 µM (inactive); with PC-3, > 10 µM (inactive); with NCI/ADR-RES, > 10 µM (inactive).
Regarding `CC(=O)OCCN(C1=NCCN1)/[N+](C=c1ccc(=C=[N-])cc1)=C/c1ccc(C#N)cc1`, the GI50 with TK-10, in the assay with EKVX, in the assay with SNB-75, in the assay on NCI-H460, in the assay with CCRF-CEM and with 786-0 was > 100 µM (inactive) each time. Besides, the GI50 with SN12C, in the assay on SK-MEL-2, in the assay on SK-OV-3, in the assay on BT-549, with HCC 2998 and in the assay with U-251 was > 100 µM (inactive) each time. Further, the GI50 in the assay on MDA-N is > 100 µM (inactive); with OVCAR-3 it was > 100 µM (inactive); in the assay on HCT-15 it was over 100 µM; in the assay with M14, > 100 µM (inactive); in the assay on PC-3 it was > 100 µM (inactive); in the assay on NCI/ADR-RES, 94.6 µM (inactive).
As for `O=Nc1c(-c2c(O)[nH]c3ccc(I)cc23)[nH]c2ccccc12`, the GI50 was 5.38 µM (inactive) with TK-10; 2.96 µM (inactive) in the assay on EKVX; 5.33 µM (inactive) in the assay on SNB-75; 3.7 µM (inactive) in the assay with NCI-H460; 2.08 µM (inactive) in the assay on CCRF-CEM; 2.61 µM (inactive) in the assay with HL-60. In addition, the GI50 in the assay with SN12C was 3.72 µM (inactive); with SK-MEL-2, 1.99 µM (inactive); in the assay on SK-OV-3, 2.42 µM (inactive); with BT-549, 18 µM (inactive); with HCC 2998, 2.31 µM (inactive); in the assay with U-251 it was 5.62 µM (inactive). Also, the GI50 is 4.97 µM (inactive) with MDA-N; 5.35 µM (inactive) in the assay on OVCAR-3; 3.21 µM in the assay on HCT-15; > 21.6 µM (inactive) in the assay with M14; 3.37 µM (inactive) with PC-3; 8.2 µM (inactive) in the assay with NCI/ADR-RES.
As to `CC[C@@]1(O)C(=O)OCc2c1cc1n(c2=O)Cc2c-1nc1ccccc1c2CC[Si](C)(C)C` [COSITECAN], the GI50 in the assay with TK-10 is 0.131 µM (active); in the assay on EKVX, 0.0671 µM (active); in the assay on SNB-75, < 0.01 µM (active); in the assay on NCI-H460, < 0.01 µM (active); in the assay on HL-60, < 0.01 µM (active); in the assay on 786-0, < 0.01 µM (active). Besides, the GI50 in the assay on SN12C is < 0.01 µM (active); with SK-MEL-2 it was 0.053 µM (active); in the assay with SK-OV-3, < 0.01 µM (active); in the assay on BT-549 it was 0.023 µM (active); with HCC 2998, < 0.01 µM (active); with U-251, < 0.01 µM (active). Moreover, the GI50 was < 0.01 µM (active) in the assay with MDA-N; 0.0604 µM (active) in the assay on OVCAR-3; 0.0789 µM with HCT-15; < 0.01 µM (active) in the assay with M14; < 0.0389 µM (active) in the assay on PC-3; < 0.01 µM (active) in the assay with NCI/ADR-RES.
